According to ChEMBL document CHEMBL3046264, “Juvenile hormone activity of ethyl 4-(2-aryloxyhexyloxy)benzoates with precocious metamorphosis-inducing activity” (Biosci Biotechnol Biochem, 2007):
Active and inactive are the calls of the source. The rule behind the calls is not given here.

Experiments:
[1] = system: Bombyx mori; experiment: Induction of precocious metamorphosis in allatectomized fourth-instar larvae of Bombyx mori Shunei x Shougetsu assessed as juvenile hormone activity at 1 ug applied topically to dorsal abdomen of larvae; format: functional, organism-based
[2] = system: Bombyx mori; experiment: Induction of precocious metamorphosis in allatectomized fourth-instar larvae of Bombyx mori Shunei x Shougetsu assessed as juvenile hormone activity at 10 to 40 ug applied topically to dorsal abdomen of larvae; format: functional, organism-based

Structure (SMILES) | Activity [1] | Activity [2]
CCOC(=O)c1ccc(OCC(CC)OC(=O)C(C)(C)C)cc1 (stereo unspecified) | Active | –
CCCCC(COc1ccc(C(=O)OCC)cc1)Oc1ccccc1 (stereo unspecified) | inactive | Active
COC(C)(C)CCC[C@H](C)C/C=C/C(C)=C/C(=O)OC(C)C | Active | –
CCCCC(COc1ccc(C(=O)OCC)cc1)Oc1ccc(C)nc1 (stereo unspecified) | inactive | Active
